Laboratory results: US11802120B2, “Fused cyclic urea derivatives as CRHR2 antagonist” (RaQualia Pharma Inc., priority 2018, dated 2023)

Target: T1, human CRHR2-alpha (Homo sapiens, UniProt Q13324)
T1 sequence (Q13324 1-411): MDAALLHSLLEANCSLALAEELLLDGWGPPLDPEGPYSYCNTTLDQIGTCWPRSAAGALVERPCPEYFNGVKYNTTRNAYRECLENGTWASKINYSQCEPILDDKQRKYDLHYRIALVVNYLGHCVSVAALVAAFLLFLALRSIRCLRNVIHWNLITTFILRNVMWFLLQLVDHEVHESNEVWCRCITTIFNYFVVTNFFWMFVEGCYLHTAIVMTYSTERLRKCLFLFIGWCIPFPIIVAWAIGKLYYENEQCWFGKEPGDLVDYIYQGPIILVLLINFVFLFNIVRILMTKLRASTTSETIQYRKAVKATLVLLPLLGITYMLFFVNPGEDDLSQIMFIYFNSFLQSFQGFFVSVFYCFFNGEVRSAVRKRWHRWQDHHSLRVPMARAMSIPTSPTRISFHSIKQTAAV
Test: cAMP functional assay for human CRHR2 (LANCE Ultra cAMP, TR-FRET)
Format: cell-based
Details: CHO-K1 cells expressing human CRHR2-alpha, agonist human urocortin2 at EC80, cAMP; read-out: IC50 against CRHR2
Procedure, shortened: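 Antagonism measured in CHO-K1 cells stably expressing the receptor, serum-starved 7 h then cryopreserved. Thawed cells in HBSS buffer with 0.1% BSA, 0.5 mM IBMX, 5 mM Hepes pH 7.4 were preincubated with compound 30 min at 25° C, then stimulated 30 min with EC80 agonist: urocortin2 for CRHR2, CRF for CRHR1.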

## CNc1ncc(-n2c(=O)n(C[C@H]3CC[C@H](NC(=O)c4cc(Cl)cnc4C(F)F)CC3)c3ccccc32)cc1F [Example 639, 5-chloro-2-(difluoromethyl)-N-((1r,4r)-4-((3-(5-fluoro-6-(methylamino)pyridin-3-yl)-2-oxo-2,3-dihydro-1H-benzo[d]imidazol-1-yl)methyl)cyclohexyl)nicotinamide]
  IC50: < 0.3 µM

## O=C(N[C@H]1CC[C@H](Cn2c(=O)n(-c3ccc(N4CCNC4=O)nc3)c3ccccc32)CC1)c1cc(Cl)cnc1C(F)(F)F [Example 640, 5-chloro-N-((1r,4r)-4-((2-oxo-3-(6-(2-oxoimidazolidin-1-yl)pyridin-3-yl)-2,3-dihydro-1H-benzo[d]imidazol-1-yl)methyl)cyclohexyl)-2-(trifluoromethyl) nicotinamide]
  IC50: < 0.3 µM

## O=C(N[C@H]1CC[C@H](Cn2c(=O)n(-c3ccc(N4CCCC4=O)nc3)c3ccccc32)CC1)c1cc(Cl)cnc1C(F)(F)F [Example 641, 5-chloro-N-((1r,4r)-4-((2-oxo-3-(6-(2-oxopyrrolidin-1-yl)pyridin-3-yl)-2,3-dihydro-1H-benzo[d]imidazol-1-yl)methyl)cyclohexyl)-2-(trifluoromethyl) nicotinamide]
  IC50: < 0.3 µM

## CCC(=O)Nc1ccc(-n2c(=O)n(C[C@H]3CC[C@H](NC(=O)c4cc(Cl)cnc4C(F)(F)F)CC3)c3ccccc32)cn1 [Example 643, 5-chloro-N-((1r,4r)-4-((2-oxo-3-(6-propionamido-pyridin-3-yl)-2,3-dihydro-1H-benzo[d]imidazol-1-yl)methyl)cyclohexyl)-2-(tri-fluoromethyl)nicotinamide]
  IC50: < 0.3 µM

## Cc1nc2cc(-n3c(=O)n(C[C@H]4CC[C@H](NC(=O)c5cc(Cl)cnc5C)CC4)c4ccccc43)ccc2s1 [Example 645, 5-chloro-2-methyl-N-((1r,4r)-4-((3-(2-methylbenzo[d]thiazol-5-yl)-2-oxo-2,3-dihydro-1H-benzo[d]imidazol-1-yl)methyl)cyclohexyl) nicotinamide]
  IC50: < 0.3 µM

## CNc1ccc(-n2c(=O)n(C[C@H]3CC[C@H](NC(=O)c4cc(Cl)cnc4C)CC3)c3ccccc32)cc1 [Example 646, 5-chloro-2-methyl-N-((1r,4r)-4-((3-(4-(methylamino)phenyl)-2-oxo-2,3-dihydro-1H-benzo[d]imidazol-1-yl)methyl)cyclohexyl)nicotinamide]
  IC50: < 0.3 µM

## Cc1ncc(Cl)cc1C(=O)N[C@H]1CC[C@H](Cn2c(=O)n(-c3ccc(N(C)C)cn3)c3ccccc32)CC1 [Example 647, 5-chloro-N-((1r,4r)-4-((3-(5-(dimethylamino)pyridin-2-yl)-2-oxo-2,3-dihydro-1H-benzo [d]imidazol-1-yl)methyl)cyclo-hexyl)-2-methylnicotinamide]
  IC50: < 0.3 µM

## CN(C)c1ccc(-n2c(=O)n(C[C@H]3CC[C@H](NC(=O)c4cc(Cl)cnc4C(F)F)CC3)c3ccccc32)nc1 [Example 648, 5-chloro-2-(difluoromethyl)-N-((1r,4r)-4-((3-(5-(dimethyl-amino)pyridin-2-yl)-2-oxo-2,3-dihydro-1H-benzo[d]imidazol-1-yl)methyl)cyclo-hexyl)nicotinamide]
  IC50: < 0.3 µM

## Cc1ncc(Cl)cc1C(=O)N[C@H]1CC[C@H](Cn2c(=O)n(-c3ccnc(N(C)C)c3)c3ccccc32)CC1 [Example 649, 5-chloro-N-((1r,4r)-4-((3-(2-(dimethylamino)pyridin-4-yl)-2-oxo-2,3-dihydro-1H-benzo[d]imidazol-1-yl)methyl)cyclohexyl)-2-methyl-nicotinamide]
  IC50: < 0.3 µM

## CN(C)c1cc(-n2c(=O)n(C[C@H]3CC[C@H](NC(=O)c4cc(Cl)cnc4C(F)F)CC3)c3ccccc32)ccn1 [Example 650, 5-chloro-2-(difluoromethyl)-N-((1r,4r)-4-((3-(2-(dimethyl-amino)pyridin-4-yl)-2-oxo-2,3-dihydro-1H-benzo[d]imidazol-1-yl)methyl)cyclo-hexyl)nicotinamide]
  IC50: < 0.3 µM

## Cc1ncc(Cl)cc1C(=O)N[C@H]1CC[C@H](Cn2c(=O)n(-c3cccc(-c4ccn(C)n4)c3)c3ccccc32)CC1 [Example 651, 5-chloro-2-methyl-N-((1r,4r)-4-((3-(3-(1-methyl-1H-pyrazol-3-yl)phenyl)-2-oxo-2,3-dihydro-1H-benzo [d]imidazol-1-yl)methyl)cyclohexyl)nicotinamide]
  IC50: < 0.3 µM

## Cc1ncc(Cl)cc1C(=O)N[C@H]1CC[C@H](Cn2c(=O)n(-c3cncc(-c4ccn(C)n4)c3)c3ccccc32)CC1 [Example 652, 5-chloro-2-methyl-N-((1r,4r)-4-((3-(5-(1-methyl-1H-pyrazol-3-yl)pyridin-3-yl)-2-oxo-2,3-dihydro-1H-benzo[d]imidazol-1-yl)methyl)cyclohexyl)nicotinamide]
  IC50: < 0.3 µM

## Cc1ncc(Cl)cc1C(=O)N[C@H]1CC[C@H](Cn2c(=O)n(-c3ccc(-c4ccn(C)n4)nc3)c3ccccc32)CC1 [Example 654, 5-chloro-2-methyl-N-((1r,4r)-4-((3-(6-(1-methyl-1H-pyrazol-3-yl)pyridin-3-yl)-2-oxo-2,3-dihydro-1H-benzo[d]imidazol-1-yl)methyl)cyclohexyl)nico-tinamide]
  IC50: < 0.3 µM

## Cc1ncc(Cl)cc1C(=O)N[C@H]1CC[C@H](Cn2c(=O)n(-c3ccnc(-c4ccn(C)n4)c3)c3ccccc32)CC1 [Example 655, 5-chloro-2-methyl-N-((1r,4r)-4-((3-(2-(1-methyl-1H-pyrazol-3-yl)pyridin-4-yl)-2-oxo-2,3-dihydro-1H-benzo[d]imidazol-1-yl)methyl)cyclohexyl)nicotinamide]
  IC50: < 0.3 µM

## Cc1ncc(Cl)cc1C(=O)N[C@H]1CC[C@H](Cn2c(=O)n(-c3cccc(-c4cnn(C)c4)n3)c3ccccc32)CC1 [Example 656, 5-chloro-2-methyl-N-((1r,4r)-4-((3-(6-(1-methyl-1H-pyrazol-4-yl)pyridin-2-yl)-2-oxo-2,3-dihydro-1H-benzo[d]imidazol-1-yl)methyl)cyclohexyl)nicotinamide]
  IC50: < 0.3 µM

## Cn1cc(-c2cccc(-n3c(=O)n(C[C@H]4CC[C@H](NC(=O)c5cc(Cl)cnc5C(F)F)CC4)c4ccccc43)n2)cn1 [Example 657, 5-chloro-2-(difluoromethyl)-N-((1r,4r)-4-((3-(6-(1-methyl-1H-pyrazol-4-yl)pyridin-2-yl)-2-oxo-2,3-dihydro-1H-benzo[d]imidazol-1-yl)methyl)cyclohexyl)nicotinamide]
  IC50: < 0.3 µM

## NC(=O)Nc1ccc(-n2c(=O)n(C[C@H]3CC[C@H](NC(=O)c4cc(Cl)cnc4C(F)F)CC3)c3ccccc32)cn1 [Example 658, 5-chloro-2-(difluoromethyl)-N-((1r,4r)-4-((2-oxo-3-(6-ureidopyridin-3-yl)-2,3-dihydro-1H-benzo[d]imidazol-1-yl)methyl)cyclohexyl)nicotinamide]
  IC50: < 0.3 µM

## CN(C)c1cccc(-n2c(=O)n(C[C@H]3CC[C@H](NC(=O)c4cc(Cl)cnc4C(F)F)CC3)c3ccccc32)n1 [Example 659, 5-chloro-2-(difluoromethyl)-N-((1r,4r)-4-((3-(6-(dimethyl-amino)pyridin-2-yl)-2-oxo-2,3-dihydro-1H-benzo[d]imidazol-1-yl)methyl)cyclo-hexyl)nicotinamide]
  IC50: < 0.3 µM

## CNc1ccc(-n2c(=O)n(C[C@H]3CC[C@H](NC(=O)c4cc(Cl)cnc4C(F)F)CC3)c3ccccc32)nc1 [Example 660, 5-chloro-2-(difluoromethyl)-N-((1r,4r)-4-((3-(5-(methylamino)pyridin-2-yl)-2-oxo-2,3-dihydro-1H-benzo[d]imidazol-1-yl)methyl)cyclohexyl)nicotinamide]
  IC50: < 0.3 µM

## CNc1cc(-n2c(=O)n(C[C@H]3CC[C@H](NC(=O)c4cc(Cl)cnc4C(F)F)CC3)c3ccccc32)ccn1 [Example 661, 5-chloro-2-(difluoromethyl)-N-((1r,4r)-4-((3-(2-(methylamino)pyridin-4-yl)-2-oxo-2,3-dihydro-1H-benzo[d]imidazol-1-yl)methyl)cyclohexyl)nicotinamide]
  IC50: < 0.3 µM

## CNc1cccc(-n2c(=O)n(C[C@H]3CC[C@H](NC(=O)c4cc(Cl)cnc4C(F)F)CC3)c3ccccc32)n1 [Example 662, 5-chloro-2-(difluoromethyl)-N-((1r,4r)-4-((3-(6-(methylamino)pyridin-2-yl)-2-oxo-2,3-dihydro-1H-benzo[d]imidazol-1-yl)methyl)cyclohexyl)nicotinamide]
  IC50: < 0.3 µM

## CN(C)c1cc(-n2c(=O)n(C[C@H]3CC[C@H](NC(=O)c4cc(Cl)cnc4C(F)(F)F)CC3)c3ccccc32)ccn1 [Example 663, 5-chloro-N-((1r,4r)-4-((3-(2-(dimethylamino)pyridin-4-yl)-2-oxo-2,3-dihydro-1H-benzo[d]imidazol-1-yl)methyl)cyclohexyl)-2-(trifluoromethyl)nicotinamide]
  IC50: < 0.3 µM

## COCCNc1ccc(-n2c(=O)n(C[C@H]3CC[C@H](NC(=O)c4cc(Cl)cnc4C(F)(F)F)CC3)c3ccccc32)cn1 [Example 664, 5-chloro-N-((1r,4r)-4-((3-(6-((2-methoxyethyl)amino)pyridin-3-yl)-2-oxo-2,3-dihydro-1H-benzo[d]imidazol-1-yl)methyl)cyclohexyl)-2-(trifluoromethyl)nicotinamide]
  IC50: < 0.3 µM

## CNc1cc(-n2c(=O)n(C[C@H]3CC[C@H](NC(=O)c4cc(Cl)cnc4C(F)(F)F)CC3)c3ccccc32)ccn1 [Example 665, 5-chloro-N-((1r,4r)-4-((3-(2-(methylamino)pyridin-4-yl)-2-oxo-2,3-dihydro-1H-benzo[d]imidazol-1-yl)methyl)cyclohexyl)-2-(trifluoromethyl)nicotinamide]
  IC50: < 0.3 µM
